Patent US20250009696A1, “METHODS OF CANCER TREATMENT VIA REGULATED FERROPTOSIS” (Memorial Sloan Kettering Cancer Center, priority 2017, published 2025)

Columns and labels:
[1] = tested on: cells treated with FAC and BSO; test: Cell swelling and cell lysis (LDH release) in FAC and BSO-induced ferroptosis; format: cell-based; details: for cell lysis / cell rupture (release of lactate dehydrogenase, LDH): 48 hours of treatment with FAC and BSO (400 μM), osmoprotectant 30 mM
Description: The effect on cell lysis is shown by reduced release of lactate dehydrogenase (LDH), a measure of necrosis.
To investigate if the ferroptotic rupture of cells might be an event that is regulated by a pore, experiments were performed with osmo-protectants in the cell culture medium. Osmo-protectants are large osmolytes that when added to sufficient concentrations outside of cells (30 mM), buffer potential ion imbalances caused by pore formation that would otherwise lead to membrane rupture. The loss of ion and small molecule balances across the plasma membrane due to the opening of a pore would lead to hypo-osmotic stress due to the large molecules and organelles that cannot cross the intact membrane.
(§1) The use of osmo-protectants (FIG. 1B) of increasing sizes can indicate the presence of pores in the membrane that would be required for cell rupture.

[2] = tested on: cells treated with FAC and BSO; test: Spreading of ferroptosis, cell rounding and calcium signal with inhibitors or osmoprotectants; format: cell-based
Description: FIG. 3A depicts images that show cell colony prior to (left) and 12 hours after (right) treatment with liproxstatin-1. Note cell death involving wave-like spreading that was induced by FAC and BSO, and started prior to liproxstatin-1 addition, was inhibited, as cells that were alive (bottom right half of colony) stayed alive for 12 hours.
Right images show computational quantifications of the spreading of cell rounding (top), which remains significant in the presence of PEG1450 (***P=0.004) (see histogram, bottom). Cells are pseudocolored in top image to represent the relative timing of cell rounding.
Relative times are shown as minutes (min).
It was observed that ferroptosis involves a pore-forming activity and, also, a spreading activity. […] As cell rounding or swelling may be associated with calcium influx into cells, cells expressing the genetically-encoded calcium sensor GCaMP, which emits GFP fluorescence upon calcium exposure, were treated with FAC and BSO to induce ferroptosis in the presence of PEG3350.

[3] = tested on: HT1080 cells; test: Cell rupture in response to other inducers of ferroptosis with osmoprotectants; format: cell-based; details: necrotic cell death induced by hydrogen peroxide, FIG. 1F
Source text: as §1

[4] = tested on: LNCAP-AR prostate cancer cells; test: Western blot of PSMA and AR expression after enzalutamide exposure in vitro; format: cell-based; details: 10 μM over 15 days
[5] = tested on: LNCAP xenografts; test: PSMA expression in xenografts after daily enzalutamide; format: in vivo, mice; details: 10 mg/kg/day, oral gavage
[6] = tested on: LNCAP prostate cancer cells; test: Western blot of PSMA and AR expression after enzalutamide exposure in vitro; format: cell-based; details: 10 μM continuously for 15 days
Source text: At the conclusion of exposure, cells were collected and the expression levels of PSMA and AR were examined via Western blot.

[7] = tested on: PC-3 prostate cancer cells; test: as above; format: cell-based; details: 10 μM for 15 days
[8] = Computational analysis of cell death spreading (time-lapse microscopy, random trials); format: cell-based; details: experimentally-induced apoptosis; cell line not stated
Description: Nuclei are circled and color-coded to represent the relative timing of cell death, determined by time-lapse microscopy. The relative positioning of cell deaths occurring in successive frames of a time-lapse movie are calculated by measuring the distance between newly occurring deaths and their nearest neighbor of any previous deaths, for example death 2 to death 1, or distance a. The mean distance of all deaths in a movie is calculated as distances (a+b+c+ . . . +n)/n.
It was observed that ferroptosis involves the spreading of cell death between adjacent cells in cell culture in wave-like or synchronous patterns. […] To study cell death spreading, a computational analysis was designed that allows for quantification of the random or non-random nature of observed patterns of cell death in a population. As shown in FIGS. 2A-2D, this analysis utilizes time-lapse microscopic imaging of cell death, for cells cultured in the presence of Sytox green or Sytox orange dyes (or propidium iodide), which enter the nucleus of necrotic cells and emit green or red fluorescence (FIG. 2A). […] In addition to the actual data set calculated for each field of view, randomized trials are then also performed 1000 times for each microscopic field, to generate a random set of possible mean distances that account for the particular arrangements of cells in each field (FIG. 2B). […]

SMILES: OC[C@H]1O[C@@](CO)(O[C@H]2O[C@H](CO)[C@@H](O)[C@H](O)[C@H]2O)[C@@H](O)[C@@H]1O [sucrose]
- cell lysis / cell rupture (release of lactate dehydrogenase, LDH) [1]: did not

SMILES: Clc1cccc(CN=C2Nc3ccccc3NC23CCNCC3)c1 [liproxstatin-1]
- spreading of cell rounding / morphological changes ([2]; FAC and BSO (400 μM) in the presence of the named agent): blocked
- wave-like spreading of ferroptosis ([2]; FAC and BSO, agent added after initiation of ferroptosis): disrupted wave-like spreading

SMILES: OO [hydrogen peroxide]
- regulation of necrotic cell death by PEG1450 or PEG3350 [3]: did not involve similar regulation

SMILES: COc1nccnc1NS(=O)(=O)c1ccc(NC(=O)/C=C/c2ccc([N+](=O)[O-])s2)cc1 [necrosulfonamide]
- ferroptotic cell rupture ([1]; treatment with inhibitor of MLKL): did not affect ferroptotic cell rupture

SMILES: CNC(=O)c1ccc(N2C(=S)N(c3ccc(C#N)c(C(F)(F)F)c3)C(=O)C2(C)C)cc1F [enzalutamide]
- AR expression (Western blot) [4]: clear increase in AR expression is observed from Day 3 onward
- PSMA expression (Western blot) [4]: time-dependent increase in PSMA expression
- PSMA expression in LNCAP xenografts [5]: increase in PSMA expression at Day 5
- PSMA expression in tumor sections (immunofluorescence staining) [5]: increase in PSMA expression at Day 5
- AR expression (Western blot) [6]: transient increase in AR expression is also observed from Day 7 to Day 10
- PSMA expression (Western blot) [6]: increase in PSMA expression occurs on, or around, Day 7 of exposure
- AR expression (Western blot) [7]: negative for AR across all tested time points
- PSMA expression (Western blot) [7]: lack of PSMA expression at all time points

SMILES: C[C@@H]1C[C@@H]([C@H](O)CC2CC(=O)NC(=O)C2)C(=O)[C@@H](C)C1 [cyclohexamide]
- observed mean distance between cell deaths versus random trials [8]: falls within the random trials

SMILES: OC[C@H]1O[C@H](OC[C@H]2O[C@H](O[C@]3(CO)O[C@H](CO)[C@@H](O)[C@@H]3O)[C@H](O)[C@@H](O)[C@@H]2O)[C@H](O)[C@@H](O)[C@H]1O [raffinose]
- cell lysis / cell rupture (release of lactate dehydrogenase, LDH) [1]: did not
